Patent US5736518A, “Peptide compounds of (L) amino acids and ring molecules, and therapeutical applications thereof” (Polifarma S.p.A., priority 1990, dated 1998)
Square brackets hold non-standard residues; d marks the D form. Peptide text beside a SMILES is read from it. * marks the point of attachment. Trp(1-Me) = Cn1cc(C[C@H](N)C(=O)O)c2ccccc21; Tic = O=C(O)[C@@H]1Cc2ccccc2CN1; pGlu = O=C1CC[CH](C(=O)O)N1; Hyp = O=C(O)[CH]1C[CH](O)CN1; Phg = N[CH](C(=O)O)c1ccccc1; ΔPro = O=C(O)[C@@H]1C=CCN1; Pip = O=C(O)[C@@H]1CCCCN1; αMeP = C[C]1(C(=O)O)CCCN1; Cbz = O=C(OCc1ccccc1)*; Aze = O=C(O)[CH]1CCN1; Boc = CC(C)(C)OC(=O)*

Columns and labels:
[1] = test system: carraginine edema; test: anti-inflammatory effect, test of carraginine edema; assay type: in vivo; conditions: edema from carrageenin; dose not stated
Source text: (§1) In the following examples will first of all be given the data necessary for synthesis of the compounds according to the present invention. There will then be given data regarding their pharmacological activity, using methods widely known to be valid. In particular, for the pressure tests, spontaneously hyper-tensive rats were used (SHR from the company Charles River), operated in such a way as to enable pressure to be read even when the animals were awake and free to move. In order to evaluate the analgesic activity, the Hot Plate and Writhing Tests were used. For the anti-inflammatory effect the test of carraginine edema was used. Finally, for immuno-modulating activity the evaluation of the stimulation of growth of human lymphocytes in culture was resorted to, after the addition of specific antigens. The results obtained for each synthesized compound are given at the end of each example.

[2] = test system: spontaneously hyper-tensive rats (SHR from the company Charles River); test: pressure tests in spontaneously hypertensive rats, awake and free to move; assay type: in vivo
Source text: as §1, with “antigens.” for “antigens. The results obtained for each synthesized compound are given at the end of each example.”

[3] = test system: human lymphocytes in culture; test: immuno-modulating activity: stimulation of growth of human lymphocytes in culture after addition of specific antigens; assay type: cell-based; conditions: for immune response / immuno-stimulating activity (in words): human lymphocytes in culture, antigen not stated
Source text: as §1

[4] = Hot Plate test (analgesic activity); assay type: in vivo
Source text: as §1

[5] = analgesic activity, test not given (Hot Plate and Writhing Tests were used); assay type: in vivo; conditions: test and dose not stated
Source text: as §1

| Compound | anti-inflammatory effect (in words) [1] | anti-hypertensive effect (in words) ([2]; dose not stated) | immune response / immuno-stimulating activity (in words) [3] | further results |
| --- | --- | --- | --- | --- |
| COC(=O)[C@H](Cc1c[nH]c2ccccc12)NC(=O)[C@H](CC(C)C)NC(=O)[C@@H]1CCC(=O)N1C(=O)OCc1ccccc1 [compound 19, Z-(L)-Pyr-(L)-Leu-(L)-TrpOMe] | fair anti-inflammatory activity | slight anti-hypertensive effect |  |  |
| COC(=O)C(Cc1c[nH]c2ccccc12)NC(=O)C(CC(C)C)NC(=O)C1(C)CCCN1C(=O)OC(C)(C)C (stereo not drawn) [compound 12, Boc-(L)-Mep-(L)-Leu-(L)-TrpOMe] (Boc-[αMeP]-Leu-Trp-OMe; configuration not given here) | reduction of the inflammatory response | bland anti-hypertensive effect |  |  |
| COC(=O)[C@H](Cc1c[nH]c2ccccc12)NC(=O)[C@H](CC(C)C)NC(=O)[C@@H]1CCCCN1C(=O)OCc1ccccc1 [compound 15, Z-(L)-Pip-(L)-Leu-(L)-TrPOMe] (Cbz-[Pip]-Leu-Trp-OMe) | consistent |  | slight increase in immune response | anti-hypertensive effect (in words) ([2]; 2 mg/Kg i.v.): good anti-hypertensive effect; reduction of pressure ([2]; 2 mg/Kg i.v.): up to 30% |
| COC(=O)[C@H](Cc1cn(C)c2ccccc12)NC(=O)[C@H](C)NC(=O)[C@@H]1CCCN1C(=O)OCc1ccccc1 [compound 7, Z-(L)-Pro-(L)-Ala-(1)-Me-(L)-TrpOMe] (Cbz-Pro-Ala-[Trp(1-Me)]-OMe) |  |  |  | anti-hypertensive effect (in words) ([2]; 2 mg/Kg i.v.): good anti-hypertensive effect; reduction of pressure ([2]; 2 mg/Kg i.v.): 10% |
| CCOC(=O)[C@@H]1Cc2c([nH]c3ccccc23)CN1C(=O)[C@H](C)NC(=O)[C@@H]1CCCN1C(=O)OCc1ccccc1 [compound 1, Z-(L)-Pro-(L)-Ala-(S)-CytOEt] |  |  |  | anti-hypertensive effect (in words) ([2]; 4 mg/Kg i.p.): good anti-hypertensive effect; duration of the anti-hypertensive effect ([2]; 4 mg/Kg i.p.): a number of hours; reduction of pressure values ([2]; 4 mg/Kg i.p.): 15-20%; response of lymphocytes stimulated by phytohemoagglutinine (PHA) (in words) ([3]; PHA stimulated lymphocytes): increases the response of lymphocytes; pain killing effect under the Hot Plate test (in words) ([4]; 4 mg/Kg i.p.): slight pain killing effect |
| COC(=O)C(Cc1c[nH]c2ccccc12)NC(=O)C(CC(C)C)NC(=O)C1CCN1C(=O)OCc1ccccc1 [compound 17, Z-(S)-Aze-(L)-Leu-(L)-TrpOMe] (Cbz-[Aze]-Leu-Trp-OMe; configuration not given here) | bland anti-inflammatory activity | slight anti-hypertensive effect |  |  |
| COC(=O)C(Cc1c[nH]c2ccccc12)NC(=O)C(CC(C)C)NC(=O)C1CCCN1C.Cl (stereo not drawn) [compound 10, N-Me-(L)-Pro-(L)-Leu-(L)-TrpOMe.HCl] |  |  | slightly increased | anti-hypertensive effect (in words) ([2]; 2 mg/Kg i.v.): excellent anti-hypertensive effect; reduction of pressure ([2]; 2 mg/Kg i.v.): 15-20%; analgesic effect (in words) [5]: low analgesic effect |
| COC(=O)[C@H](Cc1ccc(OC)cc1)NC(=O)[C@H](C)NC(=O)[C@@H]1CCCN1C(=O)OCc1ccccc1 [compound 4, Z-(L)-Pro-(L)-Ala-(L)-OmtOMe] (Cbz-Pro-Ala-Tyr(Me)-OMe) |  |  | slightly increased | anti-hypertensive effect (in words) ([2]; 8 mg/Kg i.v.): bland anti-hypertensive effect |
| COC[C@H](Cc1ccccc1)NC(=O)CNC(=O)[C@@H]1CCC(=O)N1 [compound 23, (L)-Pyr-Gly-(L)-Pme] |  |  | good immuno-stimulating effect | anti-hypertensive effect (in words) ([2]; 8 mg/Kg i.p.): good anti-hypertensive activity; analgesic effect (in words) [5]: excellent analgesic effect |
| COC(=O)[C@@H]1Cc2ccccc2CN1C(=O)[C@H](CC(C)C)NC(=O)[C@@H]1CCC(=O)N1C(=O)OCc1ccccc1 [compound 21, Z-(L)-Pyr-(L)-Leu-(S)-CyPOMe] |  | slight anti-hypertensive activity | good immuno-stimulating activity |  |
| COC(=O)C(NC(=O)CNC(=O)C1CCC(=O)N1)c1ccccc1 (stereo not drawn) [compound 22, (L)-Pyr-Gly-(L)-PhgOMe] ([pGlu]-Gly-[Phg]-OMe; configuration not given here) | very good |  | appears to increase the immune response | anti-hypertensive effect (in words) ([2]; 4 mg/Kg i.p.): excellent anti-hypertensive activity; reduction of pressure values ([2]; 4 mg/Kg i.p.): 20% |
| C[C@H](NC(=O)[C@@H]1CCCN1C(=O)OCc1ccccc1)C(=O)N1CCc2c([nH]c3ccccc23)C1 [compound 3, Z-(L)-Pro-(L)-Ala-CytH] |  |  |  | anti-hypertensive effect (in words) ([2]; 8 mg/Kg i.p.): bland anti-hypertensive effect |
| COC(=O)[C@@H]1Cc2c([nH]c3ccccc23)CN1C(=O)[C@H](CC(C)C)NC(=O)[C@@H]1CCC(=O)N1C(=O)OCc1ccccc1 [compound 20, Z-(L)-Pyr-(L)-Leu-(S)-CytOMe] | fair anti-inflammatory activity | bland anti-hypertensive activity |  |  |
| COC(=O)[C@H](Cc1c[nH]c2ccccc12)NC(=O)[C@H](CC(C)C)NC(=O)[C@@H]1Cc2ccccc2N1C(=O)OCc1ccccc1 [compound 14, Z-(S)-Dhi-(L)-Leu-(L)-TrpOMe] |  | bland reduction of pressure |  | analgesic effect (in words) [5]: moderate analgesic effect |
| COC(=O)[C@@H]1Cc2ccccc2CN1C(=O)[C@H](C)NC(=O)[C@@H]1CCCN1C(=O)OCc1ccccc1 [compound 11, Z-(L)-Pro-(L)-Ala(L)-CypOMe] (Cbz-Pro-Ala-[Tic]-OMe) | moderate anti-inflammatory effect | slight anti-hypertensive effect |  |  |
| COC(=O)[C@H](Cc1c[nH]c2ccccc12)NC(=O)[C@H](CC(C)C)NC(=O)c1ccc[nH]1 [compound 9, 2-Pyrrolyl-(L)-Leu-(L)-TrpOMe] | bland reduction of inflammatory responses | slight effect on pressure |  |  |
| COC(=O)[C@H](Cc1c[nH]c2ccccc12)NC(=O)[C@H](CC(C)C)NC(=O)[C@@H]1C=CCN1C(=O)OC(C)(C)C [compound 13, Boc-.gradient.^3,4 -(L)-Pro-(L)-Leu-(L)-TrpOMe] (Boc-[ΔPro]-Leu-Trp-OMe) |  | slightly anti-hypertensive | slightly increases the immune response |  |
| COC(=O)[C@@H]1Cc2ccccc2CN1C(=O)CNC(=O)[C@@H]1CCC(=O)N1 [compound 24, (L)-Pyr-Gly-(L)-CypOMe] ([pGlu]-Gly-[Tic]-OMe) | moderate anti-inflammatory action | bland anti-hypertensive action |  |  |
| COC(=O)[C@@H]1Cc2c([nH]c3ccccc23)CN1C(=O)[C@H](CC(C)C)NC(=O)[C@@H]1CCC(=O)N1 [compound 25, (L)-Pyr-(L)-Leu-(S)-CytOMe] |  | bland anti-hypertensive effect |  | analgesic effect (in words) [5]: weak analgesic activity |
| COC(=O)[C@H](Cc1c[nH]c2ccccc12)NC(=O)[C@H](CC(C)C)NC(=O)[C@@H]1CCCO1 [compound 18, (S)-Tfc-(L)-Leu-(L)-TrpOMe] |  | bland anti-hypertensive effect | stimulates the immune response in a moderate manner |  |
| COC[C@H](Cc1ccccc1)NC(=O)[C@H](C)NC(=O)[C@@H]1CCCN1C(=O)OCc1ccccc1 [compound 6, Z-(L)-Pro-(L)-Ala-(L)-Pme] | rather weak |  | more consistent | anti-hypertensive effect (in words) ([2]; 2 mg/Kg i.v.): good anti-hypertensive activity; reduction of pressure after one hour ([2]; 2 mg/Kg i.v., after one hour): approximately 25%; analgesic effect (in words) [5]: good analgesic activity |
| COC(=O)C(Cc1c[nH]c2ccccc12)NC(=O)C(CC(C)C)NC(=O)C1CC(O)CN1C(=O)OCc1ccccc1 (stereo not drawn) [compound 16, Z-(L)-Hyp-(L)-Leu-(L)-TrpOMe] (Cbz-[Hyp]-Leu-Trp-OMe; configuration not given here) |  | bland anti-hypertensive action |  | analgesic effect (in words) [5]: modest analgesic effect |
| COC(=O)[C@H](Cc1c[nH]c2ccccc12)NC(=O)[C@H](CC(C)C)NC(=O)c1ccco1 [compound 8, 2-Fur-(L)-Leu-(L)-TrpOMe] | slight antiinflammatory effect |  | strongly stimulated even with small doses of peptide | anti-hypertensive effect (in words) ([2]; 4 mg/Kg i.v.): slight anti-hypertensive effect |
| C[C@H](NC(=O)[C@@H]1CCCN1C(=O)OCc1ccccc1)C(=O)NCCc1c[nH]c2ccccc12 [compound 2, Z-(L)-Pro-(L)-Ala-TrpH] |  | comparable to that of compound 1 | increased, but to a lesser extent than in the previous compound |  |
| COC(=O)[C@@H](NC(=O)[C@H](C)NC(=O)[C@@H]1CCCN1C(=O)OCc1ccccc1)c1ccccc1 [compound 5, Z-(L)-Pro-(L)-Ala-(L)-PhgOMe] (Cbz-Pro-Ala-[Phg]-OMe) |  |  |  | anti-hypertensive effect (in words) ([2]; 8 mg/Kg i.p.): bland anti-hypertensive effect; analgesic effect, Hot Plate test (in words) ([4]; dose not stated): moderate analgesic effect |
